Measurements from patent US20230073125A1, “PERIODONTAL MICROPATCH AND USES THEREOF” (priority 2019, published 2023).

Columns and labels:
[1] = Cytokine loading and release from microparticles/microneedles in artificial saliva, ELISA; type: physicochemical; conditions: 37° C., up to four weeks
Description: For high quality periodontal treatment, the periodontal patch should act as an immunomodulator by delivering small molecules drugs and/or bioactive molecules to control infection (e.g., with antibiotics), modulate inflammation (e.g., FIG. 11A) and induce the recovery of alveolar bone. Here we used same method as described in Approach 1 to fabricate microneedles (FIG. 10A). IL-4- or TGF-β-loaded silica-heparin microparticles mixed with polymer (e.g., alginate) solution and cast into the molds to generate the microneedle patches. […] At selected time intervals (every 12 hour), the medium was collected and analyzed for released proteins using ELISA Kits. At the end of release study, the remaining proteins extracted from the particles/needles by dissolving them and the percentage of cumulative released proteins measured according to methods explained before. The released percentage measured based on the ratio of the amount released at each time point to the amount that was initially loaded. […]
The microneedle chemical formulation can be further modified for co-encapsulation of both small molecule antibiotics (encapsulated in PLGA NPs) and cytokines (encapsulated in alginate-heparin microparticles), which was integrated and addressed in Aim 3. […] At selected time intervals (every 12 hours), media was collected and analyzed for released proteins using ELISA. […]

M1 (and M0) macrophages = experiment: Macrophage polarization, transwell, flow cytometry and qPCR; type: cell-based, rat; conditions: treatment with IL-4; qPCR of markers and cytokines
Protocol: Costar transwell inserts (pore size 1 μm) was used for assessing the effectiveness of the released factor(s) on the polarization of macrophages and differentiation of T cells. Patches containing cytokines (4 experimental groups: no drug, IL-4 alone, TGF-β alone and IL-4/TGF-β) placed in the upper chamber. The bottom chamber contains artificial saliva modified media and 10^5 of either primary monocytes or naïve T cells or both (5×10^4). The isolation of primary monocytes was performed as described. Naïve T cells isolated using EasySep Rat T Cell Isolation Kit (STEMCELL Technologies) according to manufacturer's protocol. The change in macrophage phenotypes tested at different time points (day 1-5) using flow cytometry by checking the surface markers (M1): major histocompatibility complex class II (MHC II), CCR7, CD80 and CD86; M2: CD163 (M2c) and CD206 (M2a)). […] Quantitative PCR (qPCR) was used to determine the gene expression of these inflammatory cytokines and cellular markers (as exemplified in FIG. 11D). […] The expression of Foxp3 was measured by flow cytometry. […]
Costar transwell inserts (pore size 1 μm) were used to assess the effectiveness of released factor(s) on macrophage polarization and T cell differentiation. […] Quantitative PCR (qPCR) was used to determine gene expression of inflammatory cytokines and cellular markers (as exemplified in FIG. 23A-23B). […]

periodontal disease = conditions: 40 ng local administration per treatment, rat model; cited from earlier work
naïve CD4+ T-cells = experiment: Induced Treg differentiation, Foxp3/CD25 by flow cytometry; type: cell-based, rat; conditions: soluble (no particles) TGF-β
Protocol: Activation and differentiation of T cells were tested by considering expression of CD25 surface activation marker (FIG. 11C) as well as intracellular expression of the transcription factor Foxp3. […] We also tested the ability of controlling differentiation of naïve T-cells into induced Treg by providing sustained release TGF-β from alginate-based particles. We cultured rigorously naïve CD4+ T-cells with anti-CD3 and anti-CD28 for 4 days in the wells containing the microparticles loaded with TGF-β at different concentrations and compared them to the soluble (no particles) counterparts at identical concentrations. The expression of Foxp3 was measured by flow cytometry. […] T cell activation and differentiation was tested by expression of CD25 surface activation marker and intracellular expression of the transcription factor Foxp3.

Substance	cytokine release from designed platforms [1]	macrophage reprogramming (M1 (and M0) macrophages)	bone regeneration (periodontal disease)	periodontal disease progression (periodontal disease)	Foxp3 expression at very high soluble concentrations (naïve CD4+ T-cells)
interleukin 4 [IL-4]	prolonged release	successful reprograming of M1 (and M0) macrophages toward M2	helps regenerate bone	reduces periodontal disease progression	–
transforming growth factor beta [TGF-β]	prolonged release	–	–	–	plateaued and was even slightly suppressed
